Reference: ChEMBL document CHEMBL5500372, “Novel natural osthole-inspired amphiphiles as membrane targeting antibacterials against methicillin-resistant Staphylococcus aureus (MRSA)” (Eur J Med Chem, 2024)
Active and inactive are the calls of the source.

Tests used:
Staphylococcus aureus [1] = assay: Antibacterial activity against methicillin-resistant Staphylococcus aureus clinical isolate 16 infected in female KM mouse skin abscess model assessed as reduction in TNF-alpha level at 5 to 10 mg/kg, sc measured after 24 hrs by ELISA method; assay type: functional, organism-based; conditions: dose 5-10 mg/kg
[2] = Toxicity in female KM mouse assessed as animal death at 80 mg/kg, sc measured after 24 hrs; assay type: organism-based; conditions: in vivo
Staphylococcus aureus [3] = assay: Antibacterial activity against methicillin-resistant Staphylococcus aureus clinical isolate 14 measured after 18 hrs by CLSI based broth microdilution method; assay type: functional
[4] = Toxicity in female KM mouse skin abscess model infected with methicillin-resistant Staphylococcus aureus clinical isolate 16 assessed as histological abnormalities in kidney at 5 to 10 mg/kg, sc measured after 24 hrs by H and E staining based analysis; assay type: organism-based; conditions: in vivo, dose 5-10 mg/kg
Staphylococcus aureus [5] = assay: Antibacterial activity against methicillin-resistant Staphylococcus aureus clinical isolate 16 infected in female KM mouse skin abscess model assessed as healthy skin on back at 10 mg/kg, sc measured after 24 hrs; assay type: functional, organism-based
[6] = Toxicity in female KM mouse skin abscess model infected with methicillin-resistant Staphylococcus aureus clinical isolate 16 assessed as histological abnormalities in lung at 5 to 10 mg/kg, sc measured after 24 hrs by H and E staining based analysis; assay type: organism-based; conditions: in vivo, dose 5-10 mg/kg
[7] = Toxicity in female KM mouse assessed as effect on liver at 20 mg/kg, sc measured after 24 hrs by H and E staining based analysis; assay type: organism-based; conditions: in vivo
[8] = Toxicity in female KM mouse assessed as adverse reaction in skin at 20 mg/kg, sc measured after 24 hrs; assay type: organism-based; conditions: in vivo
Cell membrane [9] = assay: Induction of cell membrane disruption in methicillin-resistant Staphylococcus aureus clinical isolate 16 assessed as intact cells (Q3 region) at 32 ug/ml measured after 2 hrs by SYTO-9 and PI staining based flow cytometry analysis (reference value: 96.0%); assay type: cell membranes; conditions: dose 32.0 µg/ml
Cell membrane [10] = assay: Disruption of cell membrane in methicillin-resistant Staphylococcus aureus clinical isolate 16 assessed as increase in intracellular ROS level incubated for 50 mins by DCFH-DA staining based fluorescence assay; assay type: cell membranes
[11] = Hemolytic activity in sheep erythrocyte assessed as hemolysis incubated for 1 hr by absorbance based analysis; assay type: toxicity, cell-based, Ovis aries; conditions: sheep erythrocytes
[12] = Toxicity in female KM mouse skin abscess model infected with methicillin-resistant Staphylococcus aureus clinical isolate 16 assessed as effect on kidney at 5 to 10 mg/kg, sc measured after 24 hrs by H and E staining based analysis; assay type: organism-based; conditions: in vivo, dose 5-10 mg/kg
Cell membrane [13] = assay: Disruption of cell membrane in methicillin-resistant Staphylococcus aureus clinical isolate 16 assessed as increase in red fluorescence at 8 times MIC measured after 4 hrs by DAPI and PI staining based laser confocal microscopy based analysis; assay type: cell membranes
L02 = assay: Cytotoxicity in human L02 cells measured after 24 hrs by CCK-8 method; assay type: toxicity, cell-based; conditions: l02, 24 h
[14] = Toxicity in female KM mouse skin abscess model infected with methicillin-resistant Staphylococcus aureus clinical isolate 16 assessed as effect on spleen at 5 to 10 mg/kg, sc measured after 24 hrs by H and E staining based analysis; assay type: organism-based; conditions: in vivo, dose 5-10 mg/kg
Cell membrane [15] = assay: Disruption of cell membrane in methicillin-resistant Staphylococcus aureus clinical isolate 16 assessed as increase in protein leakage incubated for 4 hrs by microspectrophotometric analysis; assay type: cell membranes; conditions: dose <= 8.0 µg/ml
[16] = Toxicity in female KM mouse assessed as effect on histopathological abnormalities in back skin at 20 mg/kg, sc measured after 24 hrs by H and E staining based analysis; assay type: organism-based; conditions: in vivo
Cell membrane [17] = assay: Induction of cytoplasmic membrane permeabilization in methicillin-resistant Staphylococcus aureus clinical isolate 16 assessed as increase in fluorescence intensity at 8 to 32 time MIC measured for 10 mins by SYTOX green dye based fluorescence analysis; assay type: cell membranes
[18] = Toxicity in female KM mouse assessed as swelling in skin at 40 to 80 mg/kg, sc measured after 24 hrs; assay type: organism-based; conditions: in vivo, dose 40-80 mg/kg
Cell membrane [19] = assay: Disruption of cell membrane in methicillin-resistant Staphylococcus aureus clinical isolate 16 assessed as increase in DNA leakage incubated for 4 hrs by microspectrophotometric analysis; assay type: cell membranes; conditions: dose <= 8.0 µg/ml
Staphylococcus aureus [20] = assay: Antibacterial activity against methicillin-resistant Staphylococcus aureus clinical isolate 16 measured after 18 hrs in presence of cardiolipin by checkerboard broth dilution method; assay type: functional, organism-based
[21] = Toxicity in female KM mouse assessed as effect on back skin at 20 mg/kg, sc measured after 24 hrs by H and E staining based analysis; assay type: organism-based; conditions: in vivo
Staphylococcus aureus [22] = assay: Antibacterial activity against methicillin-resistant Staphylococcus aureus clinical isolate 22 measured after 18 hrs by CLSI based broth microdilution method; assay type: functional
[23] = Toxicity in female KM mouse skin abscess model infected with methicillin-resistant Staphylococcus aureus clinical isolate 16 assessed as histological abnormalities in liver at 5 to 10 mg/kg, sc measured after 24 hrs by H and E staining based analysis; assay type: organism-based; conditions: in vivo, dose 5-10 mg/kg
[24] = Toxicity in female KM mouse skin abscess model infected with methicillin-resistant Staphylococcus aureus clinical isolate 16 assessed as histological abnormalities in heart at 5 to 10 mg/kg, sc measured after 24 hrs by H and E staining based analysis; assay type: organism-based; conditions: in vivo, dose 5-10 mg/kg
[25] = Toxicity in female KM mouse assessed as effect on histopathological abnormalities in spleen at 20 mg/kg, sc measured after 24 hrs by H and E staining based analysis; assay type: organism-based; conditions: in vivo

CCCCCCNC(=O)C[N+](C)(C)CCCCCOc1ccc2ccc(=O)oc2c1CC=C(C)C.[Br-]
0.05%: Activity (Cell membrane [9])
1 µg/mL: MIC (Staphylococcus aureus [3]) | MIC (Staphylococcus aureus [22])
1040 µg/mL: HC50 at 1 h [11]
Toxic: Activity [18]
active: Activity (Staphylococcus aureus [1]) | Activity (Staphylococcus aureus [5]) | Activity (Cell membrane [10]) Dose-Dependent Effect | Activity (Cell membrane [13]) | Activity (Cell membrane [15]) Dose-Dependent Effect | Activity (Cell membrane [17]) | Activity (Cell membrane [19]) Dose-Dependent Effect | Activity (Staphylococcus aureus [20])
Non-Toxic: Activity [2] | Activity [4] | Activity [6] | Activity [7] | Activity [8] | Activity [12] | Activity (L02) | Activity [14] | Activity [16] | Activity [21] | Activity [23] | Activity [24] | Activity [25]
